According to patent publication US11731933B2, “Device and method for the desalination of water by means of thermal deionisation and liquid-phase ion extraction liquid” (ADIONICS, priority 2015, dated 2023):
Values after ≈ are worked out from the molar mass of the structure shown. Like-named read-outs stand apart in the source and are kept apart here.

Key:
[1] = Solubility in water (UV-visible spectrometry); type: physicochemical; conditions: for solubility: water
Description: The hydrophobicity or solubility of a compound can be measured by standard methods and in particular by UV-visible spectrometry.

[2] = methanol, published complexing constants; cited from earlier work
[3] = methanol; cited from earlier work
[4] = NaCl extraction from 0.2M NaCl water by ASM/CEM composition, ion chromatography of treated water; conditions: ASM: 3TFMPhOH; CEM 0.2M; NaCl 0.2M water
Procedure: To 3 mL of 3-(trifluoromethyl)phenol, was added 217 mg of Dibenzo-18-crown-6 in order to obtain a formulation with 0.2 mole/L of DB18C6. This sealed formulation was then orbitally stirred at 500 rpm overnight after 1 mL of distilled water was added twice to allow water saturation of the whole.
The next morning, an aqueous 0.2 mol/L NaCl solution was prepared from twice distilled water, while the formulation that was stirred overnight was allowed to stand for decantation. A clear decantation of the two colorless phases is obtained in a few minutes. 3 mL of the organic extraction solution is then removed and transferred to a flask containing 3 mL of this salt water containing 0.2 M NaCl, then the flask is sealed and orbitally stirred (usually 500 rpm), for 3 hours and at room temperature. It is verified that droplets of the order of 1-2 mm are present in quantity at the selected stirring speed (400 to 900 rpm).
After stirring for 2 hours, stirring is stopped and the whole is left to stand for decantation for at least 10 minutes until the two phases are completely separated. The upper aqueous phase is then removed and then stirred and diluted for analysis of its salinity by a Metrohm Ion Chromatography Incorporating a suitable cation analysis column and a suitable anion analysis column. Similarly, the initial aqueous solution of 0.2M NaCl is also analyzed by this ion chromatography equipment to determine its relative concentration of sodium and chlorides. […]

pKa in water at 25° C. = type: physicochemical
Procedure: The pKa (or acid constant) is defined as pKa=−log10(Ka), where Ka is the acid dissociation constant which is measured in a standard manner for such pKa. The recommended standard measurement method for high, basic pKa is preferably that described by Popov and al, IUPAC—Guidelines for NMR measurements for determination of high and low pKa Pure Apl. Chem., Vol. 78, No. 3, pp. 663-675, 2006.

Row | Compound | Solubility in water [1] | Log K(Na+, MeOH, 25° C.) [2] | Log K(K+, MeOH, 25° C.) [3] | solubility [1] | pKa (pKa in water at 25° C.) | also measured
1 | OCc1cccc(C(F)(F)C(F)(F)C(F)(F)C(F)(F)F)c1 [ASM 5, [3-(Perfluorobutyl)phenyl]methanol] | < 0.077 mmol/L | – | – | < 77 µM | 14.7 | –
2 | OCc1cc(C(F)(F)C(F)(F)C(F)(F)F)cc(C(F)(F)C(F)(F)C(F)(F)F)c1 [ASM 6, [3,5-(Perfluoropropyl)phenyl]methanol] | – | – | – | < 70 µM | 14.2 | –
3 | OCc1cc(C(F)(F)F)c(C(F)(F)F)c(C(F)(F)F)c1 | – | – | – | – | 13.6 | solubility ([1]; read-out: Solubility in water): 390 µM (≈ 122 µg/mL)
4 | c1ccc2c(c1)OCCOCCOCCOc1ccccc1OCCOCCO2 [DB21C7, 6,7,9,10,12,13,20,21,23,24-Decahydrodibenzo[b,k][1,4,7,10,13,16,19] heptaoxacyclohenicosine] | – | 2.4 | 4.19 | – | – | Extraction rate at 23° C., Cl− [4]: 20.7%; Extraction rate at 23° C., Na+ [4]: 9.4%; Extraction rate at 23° C., mean NaCl [4]: 15.2%
5 | OCc1cc(C(F)(F)C(F)(F)C(F)(F)C(F)(F)F)cc(C(F)(F)C(F)(F)C(F)(F)C(F)(F)F)c1 | – | – | – | 0.5 µM (≈ 0.272 µg/mL) | 14 | –

The next lines start with results.

Row | Solubility in water [1] | Compound | Log K(Na+, MeOH, 25° C.) [2] | Log K(K+, MeOH, 25° C.) [3] | solubility [1] | pKa (pKa in water at 25° C.) | also measured
6 | 36 mmol/L (≈ 13400 µg/mL) | C1CCC2OCCOCCOC3CCCCC3OCCOCCOC2C1 (stereo not shown) [DC18C6, Dicyclohexano-1,4,7,10,13,16-hexaoxacyclooctadecane] | 4.27 | 5.97 | – | – | Extraction rate at 23° C., Cl− [4]: 30.3%; Extraction rate at 23° C., Na+ [4]: 29.1%; Extraction rate at 23° C., mean NaCl [4]: 29.7%
7 | 32 mmol/L (≈ 5640 µg/mL) | OCc1cccc(C(F)(F)F)c1 [ASM 2, [3-(Trifluoromethyl)phenyl]methanol] | – | – | – | 14.7 | –
8 | 3 mmol/L (≈ 1450 µg/mL) | C1CCC2OCCN3CCOCCOCCN(CCOC2C1)CCOC1CCCCC1OCC3 (stereo not shown) [DC[2.2.2], 5,6,14,15-DiCyclohexano-4,7,13,16,21,24-hexaoxa-1,10-diazabicyclo[8.8.8] hexacosane] | 6.02 | 6.92 | – | – | –
9 | 2.5 mmol/L (≈ 1180 µg/mL) | c1ccc2c(c1)OCCN1CCOCCOCCN(CCO2)CCOc2ccccc2OCC1 [DB[2.2.2], 5,6,14,15-DiBenzo-4,7,13,16,21,24-hexaoxa-1,10-diazabicyclo[8.8.8] hexacosane] | 7.60 | 8.74 | – | – | –
